Drawing on paper PMC6934184, “Selective DNA-PKcs inhibition extends the therapeutic index of localized radiotherapy and chemotherapy” (The Journal of Clinical Investigation, 2019), this text covers inhibition for one molecule.

This experiment deals with T1, HIPK1 (Myak) (Homo sapiens, UniProt Q86Z02).
T1 construct: purchased Thermo Fisher Scientific (Life Technologies) SelectScreen
As to the kind of experiment: SelectScreen Z'LYTE. Type of experiment: biochemical. In a few lines:
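Percent values come from Thermo SelectScreen profiling of NU5455, combining activity and binding assays. CSF1R was run in Z'LYTE format at Km app ATP, and CAMK1 in Adapta format with ATP listed at 10.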

One may read the inhibition as the percentage by which the read-out fell short of the control. A lower inhibition goes with a response near the control.

T1 sequence (Q86Z02 whole entry): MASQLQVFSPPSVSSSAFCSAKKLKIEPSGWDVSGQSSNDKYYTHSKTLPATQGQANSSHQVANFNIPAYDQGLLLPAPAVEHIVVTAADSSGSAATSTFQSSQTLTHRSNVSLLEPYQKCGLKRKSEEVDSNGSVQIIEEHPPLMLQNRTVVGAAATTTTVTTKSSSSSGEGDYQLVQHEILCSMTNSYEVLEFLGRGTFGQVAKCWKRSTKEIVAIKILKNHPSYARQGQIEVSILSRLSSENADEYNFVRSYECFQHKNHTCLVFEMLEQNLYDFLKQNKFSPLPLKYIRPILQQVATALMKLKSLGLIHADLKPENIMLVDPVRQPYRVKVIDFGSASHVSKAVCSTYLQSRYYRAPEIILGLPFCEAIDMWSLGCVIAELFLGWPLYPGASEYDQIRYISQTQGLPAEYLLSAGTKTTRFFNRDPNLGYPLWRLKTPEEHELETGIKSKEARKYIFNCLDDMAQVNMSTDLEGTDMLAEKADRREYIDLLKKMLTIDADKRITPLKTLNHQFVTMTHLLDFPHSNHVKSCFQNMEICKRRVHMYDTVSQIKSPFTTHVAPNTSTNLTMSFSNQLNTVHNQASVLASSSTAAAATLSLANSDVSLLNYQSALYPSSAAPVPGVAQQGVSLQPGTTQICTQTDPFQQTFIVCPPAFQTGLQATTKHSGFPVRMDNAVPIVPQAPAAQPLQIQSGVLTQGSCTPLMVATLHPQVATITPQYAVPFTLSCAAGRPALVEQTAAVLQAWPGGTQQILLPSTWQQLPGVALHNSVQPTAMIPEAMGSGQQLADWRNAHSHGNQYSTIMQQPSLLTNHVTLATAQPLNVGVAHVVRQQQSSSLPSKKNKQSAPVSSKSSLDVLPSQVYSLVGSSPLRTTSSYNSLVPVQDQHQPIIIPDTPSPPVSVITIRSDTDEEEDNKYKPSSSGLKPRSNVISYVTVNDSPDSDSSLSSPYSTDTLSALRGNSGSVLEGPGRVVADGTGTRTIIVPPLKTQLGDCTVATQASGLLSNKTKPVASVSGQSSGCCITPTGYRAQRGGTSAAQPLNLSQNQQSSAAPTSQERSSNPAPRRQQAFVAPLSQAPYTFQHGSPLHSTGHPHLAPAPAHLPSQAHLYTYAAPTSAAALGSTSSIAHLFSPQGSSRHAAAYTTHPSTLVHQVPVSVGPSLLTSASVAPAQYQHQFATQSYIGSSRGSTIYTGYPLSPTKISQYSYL

`CN(C(=O)CN1CCOCC1)c1ccc2sc3c(-c4cccc5c(=O)cc(N6CC7CCC(C6)O7)oc45)cccc3c2c1` [NU5455] had an inhibition at 1 µM of 2.8%.
